{
  "source": "ChEMBL document CHEMBL1201862",
  "about": "“PubChem BioAssay data set” (2004)",
  "key": {"Mu-type opioid receptor": {"target": "Mu-type opioid receptor (Homo sapiens, UniProt P35372)", "sequence (P35372 whole entry)": "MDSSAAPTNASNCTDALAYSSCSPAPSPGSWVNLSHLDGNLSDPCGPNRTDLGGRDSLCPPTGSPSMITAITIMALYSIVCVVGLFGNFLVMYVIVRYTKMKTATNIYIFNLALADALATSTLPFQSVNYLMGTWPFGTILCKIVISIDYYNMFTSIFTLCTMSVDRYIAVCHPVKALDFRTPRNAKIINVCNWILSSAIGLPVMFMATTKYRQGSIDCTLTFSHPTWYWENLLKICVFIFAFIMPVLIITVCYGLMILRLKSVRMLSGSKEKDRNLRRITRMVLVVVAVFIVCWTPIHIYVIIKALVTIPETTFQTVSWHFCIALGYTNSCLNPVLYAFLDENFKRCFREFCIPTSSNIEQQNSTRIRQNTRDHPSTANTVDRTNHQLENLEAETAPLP", "assay_type": "functional, cell-based"}, "[1]": {"target": "5-hydroxytryptamine receptor 2A (Mus musculus, UniProt P35363)", "sequence (P35363 whole entry)": "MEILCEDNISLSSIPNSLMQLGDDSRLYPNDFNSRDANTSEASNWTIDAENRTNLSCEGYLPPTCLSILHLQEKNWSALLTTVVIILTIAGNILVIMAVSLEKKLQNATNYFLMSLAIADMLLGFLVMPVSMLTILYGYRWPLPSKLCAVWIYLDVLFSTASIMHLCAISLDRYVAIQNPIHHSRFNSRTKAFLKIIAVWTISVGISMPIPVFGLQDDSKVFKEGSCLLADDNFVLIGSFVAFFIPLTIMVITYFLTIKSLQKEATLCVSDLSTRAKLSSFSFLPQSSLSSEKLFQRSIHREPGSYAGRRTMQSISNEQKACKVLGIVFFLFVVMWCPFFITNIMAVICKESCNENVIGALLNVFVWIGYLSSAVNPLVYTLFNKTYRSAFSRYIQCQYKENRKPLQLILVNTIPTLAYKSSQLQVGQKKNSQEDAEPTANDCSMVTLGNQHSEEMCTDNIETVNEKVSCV", "assay_type": "functional, cell-based"}, "Genome polyprotein": {"target": "Genome polyprotein (dengue virus type 2, UniProt P29990)", "sequence (P29990 2492-3391 limits assumed)": "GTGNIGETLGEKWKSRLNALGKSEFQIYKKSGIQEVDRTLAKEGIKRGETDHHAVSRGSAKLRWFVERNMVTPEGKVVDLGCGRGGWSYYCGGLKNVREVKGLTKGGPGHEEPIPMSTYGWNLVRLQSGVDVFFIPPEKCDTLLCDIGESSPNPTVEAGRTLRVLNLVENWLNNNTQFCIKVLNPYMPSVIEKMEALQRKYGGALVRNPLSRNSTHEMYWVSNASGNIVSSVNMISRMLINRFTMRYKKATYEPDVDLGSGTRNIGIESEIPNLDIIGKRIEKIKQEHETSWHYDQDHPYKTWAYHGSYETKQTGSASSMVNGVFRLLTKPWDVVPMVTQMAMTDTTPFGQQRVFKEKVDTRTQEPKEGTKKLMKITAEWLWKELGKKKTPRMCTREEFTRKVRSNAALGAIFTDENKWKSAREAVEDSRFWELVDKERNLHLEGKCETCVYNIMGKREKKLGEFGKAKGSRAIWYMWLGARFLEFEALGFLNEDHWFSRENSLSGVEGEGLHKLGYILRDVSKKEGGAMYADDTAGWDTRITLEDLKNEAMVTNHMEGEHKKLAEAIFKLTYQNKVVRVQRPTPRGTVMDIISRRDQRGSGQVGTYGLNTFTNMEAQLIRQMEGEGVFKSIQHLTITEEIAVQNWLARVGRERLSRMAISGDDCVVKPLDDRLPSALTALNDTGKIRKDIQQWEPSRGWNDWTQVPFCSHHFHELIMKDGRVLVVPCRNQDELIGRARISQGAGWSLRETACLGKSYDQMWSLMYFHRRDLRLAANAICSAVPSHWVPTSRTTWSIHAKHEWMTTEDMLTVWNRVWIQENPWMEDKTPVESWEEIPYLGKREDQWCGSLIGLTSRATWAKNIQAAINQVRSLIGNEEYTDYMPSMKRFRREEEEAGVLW", "test": "Dengue-2 NS5 methyltransferase inhibitors, primary screen, biochemical, confirmation dose response (AID 588689)", "assay_type": "functional"}, "[2]": {"target": "T1, Corticotropin-releasing factor receptor 2/Corticotropin-releasing factor-binding protein (Homo sapiens, UniProt P24387+Q13324)", "T1 sequence (Q13324 whole entry)": "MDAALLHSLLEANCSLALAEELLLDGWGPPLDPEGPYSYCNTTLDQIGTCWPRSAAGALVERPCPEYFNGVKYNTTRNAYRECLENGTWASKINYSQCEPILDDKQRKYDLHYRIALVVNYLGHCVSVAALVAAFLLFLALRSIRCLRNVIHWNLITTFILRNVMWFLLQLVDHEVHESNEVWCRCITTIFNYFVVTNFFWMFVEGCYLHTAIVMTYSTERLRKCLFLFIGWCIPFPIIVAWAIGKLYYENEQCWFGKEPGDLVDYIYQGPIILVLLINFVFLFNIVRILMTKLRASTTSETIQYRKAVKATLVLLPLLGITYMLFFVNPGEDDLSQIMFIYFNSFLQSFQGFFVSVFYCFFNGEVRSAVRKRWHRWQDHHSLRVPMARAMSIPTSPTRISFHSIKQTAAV", "T1 sequence (P24387 whole entry)": "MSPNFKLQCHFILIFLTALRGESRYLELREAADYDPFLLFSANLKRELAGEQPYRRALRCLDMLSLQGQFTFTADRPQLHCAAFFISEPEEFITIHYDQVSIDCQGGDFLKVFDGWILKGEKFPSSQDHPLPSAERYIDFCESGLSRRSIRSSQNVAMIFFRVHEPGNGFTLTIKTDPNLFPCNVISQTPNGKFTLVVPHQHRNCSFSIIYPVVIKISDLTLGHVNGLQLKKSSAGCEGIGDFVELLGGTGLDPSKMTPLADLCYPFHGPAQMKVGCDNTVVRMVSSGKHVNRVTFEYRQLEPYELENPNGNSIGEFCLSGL", "test": "Dose Response confirmation of uHTS hits for small molecule antagonists of the CRF-binding protein and CRF-R2 receptor complex.", "assay_type": "functional", "conditions": "read-out: IC50_Mean"}, "[3]": {"target": "T1, Corticotropin-releasing factor receptor 2/Corticotropin-releasing factor-binding protein", "test": "activators of CRF receptor 2 with binding protein – uHTS hits, confirmation (AID 602473)", "assay_type": "functional", "conditions": "read-out: EC50_Mean"}, "[4]": {"target": "T2, Small ubiquitin-related modifier 2 (Homo sapiens, UniProt P61956)", "T2 sequence (P61956 whole entry)": "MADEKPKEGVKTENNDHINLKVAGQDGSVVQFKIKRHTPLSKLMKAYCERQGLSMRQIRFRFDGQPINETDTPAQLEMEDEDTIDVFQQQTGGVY", "test": "SUMO2–SIM peptide binding inhibitors, dose response, selectivity assay for SUMO1 interaction inhibitor project, biochemical, fluorescence polarization, uHTS hits (AID 624385)", "assay_type": "functional", "conditions": "read-out: IC50_Mean"}, "[5]": {"target": "T3, Small ubiquitin-related modifier 1 (Homo sapiens, UniProt P63165)", "T3 sequence (P63165 whole entry)": "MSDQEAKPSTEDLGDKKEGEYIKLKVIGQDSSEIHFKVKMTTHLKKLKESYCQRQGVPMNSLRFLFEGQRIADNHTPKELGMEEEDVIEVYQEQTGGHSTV", "test": "inhibitors of SUMO1 peptide binding, dose response, biochemical, fluorescence polarization, uHTS hits (AID 624382)", "assay_type": "functional", "conditions": "read-out: IC50_Mean"}, "[6]": {"target": "T2, Small ubiquitin-related modifier 2", "test": "inhibitors of SUMO2 protein-protein interaction, dose response, selectivity assay for SUMO1 interaction inhibitor project, biochemical, FRET, human SUMO2, uHTS hits (AID 624384)", "assay_type": "functional", "conditions": "read-out: IC50_Mean"}, "[7]": {"target": "T3, Small ubiquitin-related modifier 1", "test": "inhibitors of SUMO1 partner interactions, dose response, biochemical, FRET (AID 624383)", "assay_type": "functional", "conditions": "read-out: IC50_Mean"}, "Beta-lactamase [8]": {"target": "Beta-lactamase (Salmonella choleraesuis (strain SC-B67), UniProt Q5J463)", "sequence (Q5J463 whole entry)": "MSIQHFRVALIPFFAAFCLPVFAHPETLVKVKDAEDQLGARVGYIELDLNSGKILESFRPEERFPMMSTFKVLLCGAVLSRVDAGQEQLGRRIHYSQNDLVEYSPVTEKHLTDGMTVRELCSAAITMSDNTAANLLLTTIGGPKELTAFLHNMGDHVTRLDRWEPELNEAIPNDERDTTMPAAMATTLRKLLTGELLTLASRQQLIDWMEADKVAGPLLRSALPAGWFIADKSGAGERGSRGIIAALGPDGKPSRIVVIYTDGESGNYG", "test": "Epi-absorbance-based counterscreen for selective VIM-2 inhibitors: dose response biochemical high throughput screening assay to identify inhibitors of TEM-1 serine-beta-lactamase."}, "Beta-lactamase [9]": {"target": "T4, Beta-lactamase (Pseudomonas aeruginosa, UniProt Q79MP6)", "T4 sequence (Q79MP6 whole entry)": "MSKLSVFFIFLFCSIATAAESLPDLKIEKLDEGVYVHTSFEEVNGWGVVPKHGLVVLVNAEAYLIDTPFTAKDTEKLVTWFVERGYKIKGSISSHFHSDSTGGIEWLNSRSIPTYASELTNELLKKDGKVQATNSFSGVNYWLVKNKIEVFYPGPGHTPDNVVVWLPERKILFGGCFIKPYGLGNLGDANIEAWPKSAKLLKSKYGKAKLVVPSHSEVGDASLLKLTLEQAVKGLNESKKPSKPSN", "test": "IMP-1 metallo-beta-lactamase inhibitors, dose response, selectivity assay for VIM-2 inhibitor project, biochemical, epi-absorbance (AID 1920)"}, "Beta Lactamase [10]": {"target": "T5, Beta Lactamase (Pseudomonas aeruginosa, UniProt Q932Y6)", "T5 sequence (Q932Y6 whole entry)": "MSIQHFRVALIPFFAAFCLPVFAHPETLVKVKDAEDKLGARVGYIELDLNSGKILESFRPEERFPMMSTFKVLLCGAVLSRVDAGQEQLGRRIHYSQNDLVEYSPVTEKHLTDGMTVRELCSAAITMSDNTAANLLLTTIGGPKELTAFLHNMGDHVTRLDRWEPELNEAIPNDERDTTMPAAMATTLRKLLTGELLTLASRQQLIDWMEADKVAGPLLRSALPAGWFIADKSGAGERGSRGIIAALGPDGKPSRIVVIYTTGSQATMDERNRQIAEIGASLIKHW", "test": "VIM-2 metallo-beta-lactamase inhibitor potency, dose response, biochemical, epi-absorbance readout, selective inhibitors (AID 1919)"}, "Beta-lactamase [11]": {"target": "T4, Beta-lactamase", "test": "[…] counterscreen for selective VIM-2 inhibitors: dose response biochemical high throughput screening assay to identify inhibitors of IMP-1 metallo-beta-lactamase."}, "Beta Lactamase [12]": {"target": "T5, Beta Lactamase", "test": "VIM-2 inhibitor FRET-based artefact check, dose response, artefact control for selective VIM-2 inhibitor project, biochemical, FRET readout, CCF2 substrate (AID 1926)"}, "[13]": {"test": "Luminescence Cell-Based Dose Confirmation HTS to Identify Activators of 5'UTR Stem-Loop Driven Alpha-Synuclein mRNA Translation in H4 Neuroglioblastoma Cells. [Related pubchem assays: 1829 (Project Summary), 1814 (Primary HTS)]", "assay_type": "functional"}, "[14]": {"test": "Luminescence Cell-Based Dose Response HTS to Identify Activators of Luciferase Translation or Activity in H4 […] Cells. [Related pubchem assays: 1829 (Project Summary), 1814 (Primary HTS)]", "assay_type": "functional"}, "H4": {"tested_on": "H4", "test": "Luminescence Cell-Based Dose Response HTS to Identify Activators of 5'UTR Stem-Loop Driven Prion Protein mRNA Translation in H4 Neuroglioblastoma Cells. [Related pubchem assays: 1829 (Project Summary), 1814 (Primary HTS)]", "assay_type": "functional", "conditions": "Homo sapiens"}, "Prothrombin": {"target": "Prothrombin (Homo sapiens, UniProt P00734)", "test": "Thrombin 1536 HTS Dose Response Confirmation. [Related pubchem assays: 1046 (Thrombin 1536 HTS; hits were confirmed in this assay)]", "assay_type": "functional"}, "[15]": {"target": "SWI/SNF-related matrix-associated actin-dependent regulator of chromatin subfamily A member 2 (Homo sapiens, UniProt P51531)", "sequence (P51531 whole entry)": "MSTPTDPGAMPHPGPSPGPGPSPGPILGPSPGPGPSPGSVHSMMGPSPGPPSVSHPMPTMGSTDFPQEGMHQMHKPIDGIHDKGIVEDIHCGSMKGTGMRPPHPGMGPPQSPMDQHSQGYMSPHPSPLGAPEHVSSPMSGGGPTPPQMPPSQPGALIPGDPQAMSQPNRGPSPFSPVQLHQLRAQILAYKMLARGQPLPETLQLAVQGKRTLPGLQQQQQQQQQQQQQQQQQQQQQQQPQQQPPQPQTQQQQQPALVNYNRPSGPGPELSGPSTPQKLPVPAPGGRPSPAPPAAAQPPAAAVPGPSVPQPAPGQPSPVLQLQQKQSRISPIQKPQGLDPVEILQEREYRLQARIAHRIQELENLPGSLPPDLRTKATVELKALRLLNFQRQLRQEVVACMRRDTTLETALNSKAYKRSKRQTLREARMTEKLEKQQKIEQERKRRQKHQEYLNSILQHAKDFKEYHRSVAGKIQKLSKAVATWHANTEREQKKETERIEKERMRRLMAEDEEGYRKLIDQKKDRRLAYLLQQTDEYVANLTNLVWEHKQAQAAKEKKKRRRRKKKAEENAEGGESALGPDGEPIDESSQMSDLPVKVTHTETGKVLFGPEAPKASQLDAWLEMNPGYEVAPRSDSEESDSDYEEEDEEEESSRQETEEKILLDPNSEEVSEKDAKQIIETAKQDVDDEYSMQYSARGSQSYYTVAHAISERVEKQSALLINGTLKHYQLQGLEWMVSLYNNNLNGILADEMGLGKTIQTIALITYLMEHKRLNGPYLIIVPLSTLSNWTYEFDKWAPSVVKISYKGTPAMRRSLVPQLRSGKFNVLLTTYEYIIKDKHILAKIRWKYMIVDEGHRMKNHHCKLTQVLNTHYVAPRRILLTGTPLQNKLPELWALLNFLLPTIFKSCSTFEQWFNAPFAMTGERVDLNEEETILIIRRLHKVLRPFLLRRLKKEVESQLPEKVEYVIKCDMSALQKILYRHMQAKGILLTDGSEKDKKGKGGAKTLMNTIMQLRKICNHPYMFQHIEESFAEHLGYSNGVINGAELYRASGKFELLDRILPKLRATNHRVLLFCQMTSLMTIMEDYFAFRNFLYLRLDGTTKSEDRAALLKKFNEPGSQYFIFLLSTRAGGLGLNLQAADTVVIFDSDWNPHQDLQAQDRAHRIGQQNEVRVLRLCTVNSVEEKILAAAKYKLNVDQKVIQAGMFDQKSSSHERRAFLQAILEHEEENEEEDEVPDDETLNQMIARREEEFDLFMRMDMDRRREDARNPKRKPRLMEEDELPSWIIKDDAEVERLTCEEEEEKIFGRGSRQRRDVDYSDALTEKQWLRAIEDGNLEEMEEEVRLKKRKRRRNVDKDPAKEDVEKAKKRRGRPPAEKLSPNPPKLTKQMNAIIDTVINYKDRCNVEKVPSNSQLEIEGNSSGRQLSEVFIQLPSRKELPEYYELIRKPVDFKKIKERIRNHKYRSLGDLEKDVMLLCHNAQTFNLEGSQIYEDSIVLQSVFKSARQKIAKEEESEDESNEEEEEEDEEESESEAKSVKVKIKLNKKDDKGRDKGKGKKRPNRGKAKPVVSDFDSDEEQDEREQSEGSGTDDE", "test": "Luminescence-based cell-based high throughput dose response assay to identify activators of the function of SWI/SNF related, matrix associated, actin dependent regulator of chromatin, subfamily a, member 2 (SMARCA2, BRM).", "assay_type": "functional"}, "[16]": {"test": "Counterscreen for activators of the function of SWI/SNF related, matrix associated, actin dependent regulator of chromatin, subfamily a, member 2 (SMARCA2, BRM): Luminescence-based cell-based high throughput dose response assay to identify non-selective compounds using the VP16 reporter assay.", "assay_type": "functional"}, "[17]": {"test": "AlphaScreen signal interference compounds, dose response, artefact control for ARNT-TACC3 interaction inhibitor project, biochemical, luminescence, cherry-pick (AID 651705);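 also: AlphaScreen bead proximity signal that flags compounds interfering with the detection technology; potency reflects signal decrease which marks the compound as an assay artifact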", "assay_type": "functional"}, "[18]": {"tested_on": "Streptococcus sp. 'group A'", "test": "growth inhibition of control SK(-) GAS strain, dose response, counter-screen for streptokinase expression inhibitor project, luminescence, kanamycin, BacTiterGlo, confirmation (AID 1900)", "assay_type": "functional, organism-based"}, "Streptokinase A": {"target": "T6, Streptokinase A (Streptococcus pyogenes serotype M1, UniProt P10520)", "T6 sequence (P10520 whole entry)": "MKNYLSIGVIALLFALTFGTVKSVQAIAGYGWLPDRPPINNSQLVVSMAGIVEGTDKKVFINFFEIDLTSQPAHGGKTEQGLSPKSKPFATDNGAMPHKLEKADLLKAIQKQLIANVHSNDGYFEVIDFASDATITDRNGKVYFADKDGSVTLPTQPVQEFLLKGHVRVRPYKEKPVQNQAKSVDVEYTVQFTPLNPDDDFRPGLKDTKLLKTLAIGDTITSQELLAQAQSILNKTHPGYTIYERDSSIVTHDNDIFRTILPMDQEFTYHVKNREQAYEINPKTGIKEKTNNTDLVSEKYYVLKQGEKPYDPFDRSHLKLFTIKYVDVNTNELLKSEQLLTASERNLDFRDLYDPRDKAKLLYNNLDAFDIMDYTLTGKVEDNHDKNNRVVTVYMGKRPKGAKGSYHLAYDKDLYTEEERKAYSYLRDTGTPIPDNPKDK", "test": "S. pyogenes streptokinase expression inhibitors, potency, dose response, plasminogen activation absorbance, OD405 (AID 1914);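 also: secreted streptokinase activity via plasminogen activation per viability signal from cell pellet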", "assay_type": "functional, Streptococcus pyogenes M1 GAS"}, "Streptococcus": {"tested_on": "Streptococcus", "test": "Group A Streptococcus viability loss, dose response, counter-screen for streptokinase expression inhibitor project, luminescence, BacTiterGlo (AID 1915);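 also: potency for reduction of bacterial viability or growth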", "assay_type": "functional, organism-based"}, "[19]": {"test": "HEK293T cell cytotoxicity, dose response, cytotoxicity control for HIV Vif inhibitor project, cherry-picks (AID 652208)", "assay_type": "functional, cell-based"}},
  "note": "The source made the active and inactive calls.",
  "data": [
    {"smiles": "Clc1ccccc1CN1CCN(c2ncccn2)CC1", "values": [
      {"measurement": "EC50", "setting": "Mu-type opioid receptor", "result": "92.5 µM (inactive)"},
      {"measurement": "EC50", "setting": "[1]", "result": "0.407 µM (active)"}
    ]},
    {"smiles": "O=C(Nc1cc(C(=O)Nc2ccccc2C(=O)O)cc(C(=O)Nc2ccccc2C(=O)O)c1)c1ccccc1", "values": [
      {"measurement": "IC50", "setting": "Genome polyprotein", "result": "12.7 µM (active)"},
      {"measurement": "IC50", "setting": "[2]", "result": "> 47.1 µM (inactive)"},
      {"measurement": "EC50", "setting": "[3]", "result": "> 53 µM (inactive)"},
      {"measurement": "IC50", "setting": "[4]", "result": "4.03 µM (active)"},
      {"measurement": "IC50", "setting": "[5]", "result": "1.19 µM (active)"},
      {"measurement": "IC50", "setting": "[6]", "result": "10.7 µM (active)"},
      {"measurement": "IC50", "setting": "[7]", "result": "7.45 µM (active)"}
    ]},
    {"smiles": "COc1ccc(OC)c(C2C(C(=O)c3ccco3)=C(O)C(=O)N2Cc2cccnc2)c1", "note": "(stereo not drawn)", "values": [
      {"measurement": "IC50", "setting": "Beta-lactamase [8]", "result": "> 59.6 µM (inactive)"},
      {"measurement": "IC50", "setting": "Beta-lactamase [9]", "result": "> 59.6 µM (inactive)"},
      {"measurement": "IC50", "setting": "Beta Lactamase [10]", "result": "1.94 µM (active)"},
      {"measurement": "IC50", "setting": "Beta-lactamase [11]", "result": "> 59.6 µM (inactive)"},
      {"measurement": "IC50", "setting": "Beta Lactamase [12]", "result": "0.7 µM (active)"}
    ]},
    {"smiles": "OCCCCCN=c1cc(-c2ccccc2)oc2ccc(Cl)cc12", "values": [
      {"measurement": "EC50", "setting": "[13]", "result": "14.4 µM (active)"},
      {"measurement": "EC50", "setting": "[14]", "result": "8.23 µM (active)"},
      {"measurement": "EC50", "setting": "H4", "result": "15.2 µM (active)"},
      {"measurement": "IC50", "setting": "Prothrombin", "result": "3.04 µM (active)"},
      {"measurement": "EC50", "setting": "[15]", "result": "> 10.1 µM (inactive)"},
      {"measurement": "EC50", "setting": "[16]", "result": "> 10.1 µM (inactive)"}
    ]},
    {"smiles": "COc1ccc(CCNC(=O)C23CCC(C)(C(=O)C2Br)C3(C)C)cc1OC", "note": "(stereo not drawn)", "values": [
      {"measurement": "AC50", "setting": "[17]", "result": "129 µM (active)"}
    ]},
    {"smiles": "O=C1Nc2ccccc2S/C1=C/Nc1cccc(Cl)c1", "values": [
      {"measurement": "EC50", "setting": "[13]", "result": "> 120 µM (not active)"},
      {"measurement": "EC50", "setting": "[14]", "result": "32.5 µM (active)"},
      {"measurement": "EC50", "setting": "[18]", "result": "17.9 µM (active)"},
      {"measurement": "EC50", "setting": "H4", "result": "> 120 µM (not active)"},
      {"measurement": "EC50", "setting": "Streptokinase A", "result": "> 150 µM (not active)"},
      {"measurement": "EC50", "setting": "Streptococcus", "result": "6.87 µM (active)"},
      {"measurement": "AC50", "setting": "[19]", "result": "> 52 µM (inactive)"}
    ]}
  ]
}
